Measured values as given in patent US7105664B2, “5-Halogen-6-phenyl-7-fluoroalkylamino-triazolopyrimidines as fungicides” (BASF Aktiengesellschaft, priority 2001, dated 2006).

Experiments:
Pyricularia oryzae = assay type: in vivo; conditions: 200 ppm, rice seedlings variety Tai-Nong 67, protective; untreated plants infected to 90%
[1] = tested on: Blumeria graminis f. sp. tritici; test: Control of powdery mildew on wheat, Comparison Trial 2; assay type: in vivo; conditions: wheat variety Kanzler, untreated plants infected to 100%

| SMILES | infection (% diseased leaf area) (Pyricularia oryzae) [%] | infection (% diseased leaf area) ([1]; 50 ppm) [%] | infection (% diseased leaf area) ([1]; 200 ppm) [%] |
| --- | --- | --- | --- |
| Fc1cc(F)c(-c2c(Cl)nc3ncnn3c2NCC(F)C(F)(F)F)c(F)c1 (stereo not drawn) [I-1] | 3 | – | – |
| COc1cc(F)c(-c2c(Cl)nc3ncnn3c2NCC(F)(F)F)c(F)c1 [D] | – | 80 | 60 |
| COc1cc(F)c(-c2c(Cl)nc3ncnn3c2NCCC(F)(F)F)c(F)c1 [I-7] | – | 7 | 3 |
| FC(F)=C(F)CCNc1c(-c2c(F)cc(F)cc2F)c(Cl)nc2ncnn12 [I-2] | 3 | – | – |
| CC(CNc1c(-c2c(F)cc(F)cc2F)c(Cl)nc2ncnn12)CC(F)(F)F (stereo not drawn) [I-3] | 3 | – | – |
| CC(Nc1c(-c2c(F)cccc2F)c(Cl)nc2ncnn12)C(F)(F)F (stereo not drawn) [C] | 20 | – | – |
| Fc1cccc(Cl)c1-c1c(Cl)nc2ncnn2c1NCC(F)(F)F [B] | 10 | – | – |
| COc1cc(F)c(-c2c(Cl)nc3ncnn3c2NC(C)C(F)(F)F)c(F)c1 (stereo not drawn) [E] | – | 80 | 80 |
| Fc1cc(F)c(-c2c(Cl)nc3ncnn3c2NCC(F)(F)F)c(F)c1 [A] | 60 | – | – |
